The target in this experiment is T1, PD-1/PD-L1 protein/protein interaction (recombinant human PD-L1 protein (19-238), recombinant human PD-1 protein (25-167)) (Homo sapiens, UniProt Q9NZQ7).
T1 construct: Recombinant human PD-L1 protein (19-238) with a His-tag at the C-terminus; purchased AcroBiosystems PD1-H5229 (PD-L1); PD1-H5257 (PD-1)
T1 sequence (Q9NZQ7 19-238): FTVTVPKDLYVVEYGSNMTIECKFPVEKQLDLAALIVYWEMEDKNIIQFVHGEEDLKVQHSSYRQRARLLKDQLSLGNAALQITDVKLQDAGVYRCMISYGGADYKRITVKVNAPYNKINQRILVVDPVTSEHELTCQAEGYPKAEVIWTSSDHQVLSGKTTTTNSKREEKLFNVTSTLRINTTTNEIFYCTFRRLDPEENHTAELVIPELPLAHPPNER
Description: PD-1/PD-L1 Homogeneous Time-Resolved Fluorescence (HTRF) Binding Assay. Conditions: 25° C., PBS buffer pH 7.4, 40 minutes preincubation with inhibitors. How it is done: Example A. PD-1/PD-L1 Homogeneous Time-Resolved Fluorescence (HTRF) Binding Assay
The assays were conducted in a standard black 384-well polystyrene plate with a final volume of 20 μL. Inhibitors were first serially diluted in DMSO and then added to the plate wells before the addition of other reaction components. The final concentration of DMSO in the assay was 1%. The assays were carried out at 25° C. in the PBS buffer (pH 7.4) with 0.05% Tween-20 and 0.1% BSA. Recombinant human PD-L1 protein (19-238) with a His-tag at the C-terminus was purchased from AcroBiosystems (PD1-H5229). Recombinant human PD-1 protein (25-167) with Fc tag at the C-terminus was also purchased from AcroBiosystems (PD1-H5257). PD-L1 and PD-1 proteins were diluted in the assay buffer and 10 μL was added to the plate well. Plates were centrifuged and proteins were preincubated with inhibitors for 40 minutes. The incubation was followed by the addition of 10 μL of HTRF detection buffer supplemented with Europium cryptate-labeled anti-human IgG (PerkinElmer-AD0212) specific for Fc and anti-His antibody conjugated to SureLight®-Allophycocyanin (APC, PerkinElmer-AD0059H). After centrifugation, the plate was incubated at 25° C. for 60 min. before reading on a PHERAstar FS plate reader (665 nm/620 nm ratio). Final concentrations in the assay were […], 10 nM PD-L1, 1 nM europium anti-human IgG and 20 nM anti-His-Allophycocyanin. IC50 determination was performed by fitting the curve of percent control activity versus the log of the inhibitor concentration using the GraphPad Prism 5.0 software.
In general terms: In TR-FRET formats the signal depends on donor and acceptor labels being close together.
As to `Cn1c(C(=O)Nc2cccc(-c3ccc4c(c3)OCCO4)c2C#N)nc2c1CCNC2` [Example 12, N-[2-cyano-3-(2,3-dihydro-1,4-benzodioxin-6-yl)phenyl]-1-methyl-4,5,6,7-tetrahydro-1H-imidazo[4,5-c]pyridine-2-carboxamide], the IC50 – broadly, the point on the concentration scale where inhibition reaches its midpoint – was not above 100 nM.

As for `N#Cc1c(NC(=O)c2nc3c(s2)CNCC3)cccc1-c1c(F)cccc1F` [Example 9, N-(2-cyano-2′,6′-difluorobiphenyl-3-yl)-4,5,6,7-tetrahydro[1,3]thiazolo[5,4-c]pyridine-2-carboxamide], the 50% inhibitory concentration (IC50) is not above 100 nM.

Take `Cc1c(NC(=O)c2nc3c(s2)CNCC3)cccc1-c1ccccc1CC#N` [Example 31, N-[2′-(cyanomethyl)-2-methylbiphenyl-3-yl]-4,5,6,7-tetrahydro[1,3]thiazolo[5,4-c]pyridine-2-carboxamide]: the IC50 lay in the range of 500 to 10000 nM.

With `N#Cc1cccc(-c2cccc(NC(=O)c3nc4c(s3)CNCC4)c2C#N)c1F` [Example 15, N-(2,3′-dicyano-2′-fluorobiphenyl-3-yl)-4,5,6,7-tetrahydro[1,3]thiazolo[5,4-c]pyridine-2-carboxamide], the half-maximal inhibitory concentration (IC50) was 100 to 500 nM.

On to `Cc1c(NC(=O)c2nc3c(s2)CNCC3)cccc1-c1cccc2c1cnn2C` [Example 23, N-[2-methyl-3-(1-methyl-1H-indazol-4-yl)phenyl]-4,5,6,7-tetrahydro[1,3]thiazolo[5,4-c]pyridine-2-carboxamide], for which the IC50 is not above 100 nM.

On to `Cc1c(NC(=O)c2nc3c(s2)CNCC3)cccc1-c1ccccc1C#N` [Example 30, N-(2′-cyano-2-methylbiphenyl-3-yl)-4,5,6,7-tetrahydro[1,3]thiazolo[5,4-c]pyridine-2-carboxamide], for which the IC50 lay within 100 to 500 nM.

As for `COc1cccc(-c2cccc(NC(=O)c3nc4c(s3)CNCC4)c2Cl)c1F` [Example 32, N-(2-chloro-2′-fluoro-3′-methoxybiphenyl-3-yl)-4,5,6,7-tetrahydro[1,3]thiazolo[5,4-c]pyridine-2-carboxamide], the IC50 was not above 100 nM.

As to `COc1cccc(-c2cccc(NC(=O)c3nc4c(n3C)CCN(CC(=O)O)C4)c2C#N)c1F` [Example 41, (2-{[(2-cyano-2′-fluoro-3′-methoxybiphenyl-3-yl)amino]carbonyl}-1-methyl-1,4,6,7-tetrahydro-5H-imidazo[4,5-c]pyridin-5-yl)acetic acid], the IC50 is 100 to 500 nM.

Consider `N#Cc1c(NC(=O)c2nc3c(s2)CNCC3)cccc1C1CCCCC1` [Example 8, N-(2-cyano-3-cyclohexylphenyl)-4,5,6,7-tetrahydro[1,3]thiazolo[5,4-c]pyridine-2-carboxamide], for which the IC50 is 100 to 500 nM.

Take `COc1cc(F)cc(-c2cccc(NC(=O)c3nc4c(s3)CNCC4)c2C#N)c1` [Example 17, N-(2-cyano-3′-fluoro-5′-methoxybiphenyl-3-yl)-4,5,6,7-tetrahydro[1,3]thiazolo[5,4-c]pyridine-2-carboxamide]: the IC50 is not above 100 nM.

In the case of `Cc1c(NC(=O)c2nc3c(s2)CN(CC(=O)O)CC3)cccc1-c1ccccc1` [Example 28, 2-(2-(2-methylbiphenyl-3-ylcarbamoyl)-6,7-dihydrothiazolo[5,4-c]pyridin-5(4H)-yl)acetic acid], the IC50 was not above 100 nM.

In the case of `N#Cc1c(NC(=O)c2nc3c(s2)CNCC3)cccc1C1=CCCCC1` [Example 7, N-(2-cyano-3-cyclohex-1-en-1-ylphenyl)-4,5,6,7-tetrahydro[1,3]thiazolo[5,4-c]pyridine-2-carboxamide], the IC50 is not above 100 nM.

For the compound `Cn1c(C(=O)Nc2cccc(-c3cccc4c3cnn4C)c2C#N)nc2c1CCNC2` [Example 42, N-(2-cyano-3-(1-methyl-1H-indazol-4-yl)phenyl)-1-methyl-4,5,6,7-tetrahydro-1H-imidazo[4,5-c]pyridine-2-carboxamide], the half-maximal inhibitory concentration (IC50) is 100 to 500 nM.

Turning to `N#Cc1c(NC(=O)c2nc3c(s2)CNCC3)cccc1-c1ccccc1F` [Example 4, N-(2-cyano-2′-fluorobiphenyl-3-yl)-4,5,6,7-tetrahydro[1,3]thiazolo[5,4-c]pyridine-2-carboxamide], the IC50 is not above 100 nM.

Turning to `Cc1c(NC(=O)c2nc3c(s2)CNCC3)cncc1-c1ccc2c(c1)OCCO2` [Example 38, N-[5-(2,3-dihydro-1,4-benzodioxin-6-yl)-4-methylpyridin-3-yl]-4,5,6,7-tetrahydro[1,3]thiazolo[5,4-c]pyridine-2-carboxamide], the IC50 was 500 to 10000 nM.

Turning to `O=C(Nc1cccc(-c2ccc3c(c2)OCCO3)c1Cl)c1nc2c(s1)CNCC2` [Example 34, N-[2-chloro-3-(2,3-dihydro-1,4-benzodioxin-6-yl)phenyl]-4,5,6,7-tetrahydro[1,3]thiazolo[5,4-c]pyridine-2-carboxamide], the IC50 is not above 100 nM.

For the compound `N#Cc1c(NC(=O)c2nc3c(s2)CNCC3)cccc1-c1ccccc1Cl` [Example 18, N-(2′-chloro-2-cyanobiphenyl-3-yl)-4,5,6,7-tetrahydro[1,3]thiazolo[5,4-c]pyridine-2-carboxamide], the IC50 was not above 100 nM.

Take `COc1cccc(-c2cccc(NC(=O)c3nc4c(s3)CNCC4)c2C#N)c1` [Example 16, N-(2-cyano-3′-methoxybiphenyl-3-yl)-4,5,6,7-tetrahydrothiazolo[5,4-c]pyridine-2-carboxamide]: the IC50 was not above 100 nM.

As for `COc1cccc(-c2cccc(NC(=O)c3nc4c(s3)CNCC4)c2C)c1F` [Example 21, N-(2′-fluoro-3′-methoxy-2-methylbiphenyl-3-yl)-4,5,6,7-tetrahydro[1,3]thiazolo[5,4-c]pyridine-2-carboxamide], the IC50 is not above 100 nM.

As for `N#Cc1c(NC(=O)c2cc3n(n2)CCNC3)cccc1-c1ccc2c(c1)OCCO2` [Example 10, N-[2-cyano-3-(2,3-dihydro-1,4-benzodioxin-6-yl)phenyl]-4,5,6,7-tetrahydropyrazolo[1,5-a]pyrazine-2-carboxamide], the IC50 was in the range of 100 to 500 nM.

As to `Cc1c(NC(=O)c2nc3c(s2)CN(CCO)CC3)cccc1-c1ccccc1` [Example 27, 5-(2-hydroxyethyl)-N-(2-methylbiphenyl-3-yl)-4,5,6,7-tetrahydrothiazolo[5,4-c]pyridine-2-carboxamide], the IC50 is not above 100 nM.

Consider `Cc1c(NC(=O)c2nc3c(s2)CNCC3)ccnc1-c1ccc2c(c1)OCCO2` [Example 37, N-[2-(2,3-dihydro-1,4-benzodioxin-6-yl)-3-methylpyridin-4-yl]-4,5,6,7-tetrahydro[1,3]thiazolo[5,4-c]pyridine-2-carboxamide], for which the IC50 lay within 500 to 10000 nM.

On to `Cc1c(NC(=O)c2nc3c(s2)CNCC3)cccc1-c1ccc2c(c1)OCCO2` [Example 20, N-[3-(2,3-dihydro-1,4-benzodioxin-6-yl)-2-methylphenyl]-4,5,6,7-tetrahydro[1,3]thiazolo[5,4-c]pyridine-2-carboxamide], for which the concentration for half-maximal inhibition (IC50) is not above 100 nM.

`COc1cccc(-c2cccc(NC(=O)c3nc4c(n3C)CCNC4)c2C)c1F` [Example 22, N-(2′-fluoro-3′-methoxy-2-methylbiphenyl-3-yl)-1-methyl-4,5,6,7-tetrahydro-1H-imidazo[4,5-c]pyridine-2-carboxamide]: the IC50 was not above 100 nM.

As to `Cn1ncc2c(-c3cccc(NC(=O)c4nc5c(s4)CNCC5)c3Cl)cccc21` [Example 35, N-(2-chloro-3-(1-methyl-1H-indazol-4-yl)phenyl)-4,5,6,7-tetrahydrothiazolo[5,4-c]pyridine-2-carboxamide], the IC50 was not above 100 nM.

Turning to `N#Cc1c(NC(=O)c2cc3n(n2)CCN(CCO)C3)cccc1-c1ccc2c(c1)OCCO2` [Example 11, N-[2-cyano-3-(2,3-dihydro-1,4-benzodioxin-6-yl)phenyl]-5-(2-hydroxyethyl)-4,5,6,7-tetrahydropyrazolo[1,5-a]pyrazine-2-carboxamide], the half-maximal inhibitory concentration (IC50) lay within 100 to 500 nM.

On to `N#Cc1c(NC(=O)c2nc3c(s2)CNCC3)cccc1-c1ccc2c(c1)OCCO2` [Example 1, N-[2-cyano-3-(2,3-dihydro-1,4-benzodioxin-6-yl)phenyl]-4,5,6,7-tetrahydro[1,3]thiazolo[5,4-c]pyridine-2-carboxamide], for which the IC50 was not above 100 nM.

Turning to `N#Cc1c(NC(=O)c2nc3c(s2)CNCC3)cccc1-c1ccc2c(c1)OCC2` [Example 6, N-[2-cyano-3-(2,3-dihydro-1-benzofuran-6-yl)phenyl]-4,5,6,7-tetrahydro[1,3]thiazolo[5,4-c]pyridine-2-carboxamide], the IC50 is not above 100 nM.

For `Cc1c(NC(=O)c2nc3c(s2)CNCC3)cc(F)cc1-c1ccc2c(c1)OCCO2` [Example 36, N-[3-(2,3-dihydro-1,4-benzodioxin-6-yl)-5-fluoro-2-methylphenyl]-4,5,6,7-tetrahydro[1,3]thiazolo[5,4-c]pyridine-2-carboxamide], the concentration for half-maximal inhibition (IC50) is not above 100 nM.

Consider `Cn1ncc2c(-c3cccc(NC(=O)c4nc5c(s4)CNCC5)c3C#N)cccc21` [Example 3, N-[2-cyano-3-(1-methyl-1H-indazol-4-yl)phenyl]-4,5,6,7-tetrahydro[1,3]thiazolo[5,4-c]pyridine-2-carboxamide], for which the IC50 was not above 100 nM.
